# Data from ChEMBL document CHEMBL3885881, “DrugMatrix”.
# Species: Rattus norvegicus
# Test: DrugMatrix - Regimen: Daily Repeat
# Assay type: toxicity, organism-based, Sprague-Dawley
# Parameters: regimen Daily Repeat, gender Male, age 6-8 weeks
# Conditions: in vivo, po, route oral GAVAGE, […]; for ABSOLUTE BASOPHIL / ABSOLUTE EOSINOPHIL / ABSOLUTE LYMPHOCYTE / ABSOLUTE MONOCYTE / ABSOLUTE SEGMENTED NEUTROPHIL / BASOPHIL / EOSINOPHIL / ERYTHROCYTE COUNT / HEMATOCRIT / HEMOGLOBIN / LEUKOCYTE COUNT / LYMPHOCYTE / MEAN CORPUSCULAR HEMOGLOBIN / MEAN CORPUSCULAR HEMOGLOBIN CONCENTRATION / MEAN CORPUSCULAR VOLUME / MONOCYTE / NEUTROPHIL / NUCLEATED RED BLOOD CELLS / PLATELET COUNT: tissue Blood; for ALANINE AMINOTRANSFERASE / ALBUMIN / ALKALINE PHOSPHATASE / ASPARTATE AMINOTRANSFERASE / BLOOD UREA NITROGEN / CARBON DIOXIDE / CHLORIDE / CHOLESTEROL / CREATINE PHOSPHOKINASE / CREATININE / GLUCOSE / LACTATE DEHYDROGENASE / LIPASE / PHOSPHORUS / POTASSIUM / SODIUM / TOTAL BILIRUBIN / TOTAL PROTEIN / URIC ACID: tissue Plasma
# [1] = 3 mg/kg, 120 h, dose level Low, time 5 day
# [2] = 110 mg/kg, 72 h, dose level High, time 3 day
# [3] = 110 mg/kg, 120 h, dose level High, time 5 day
structure (smiles),measurement,setting,value
Cc1cccc(Nc2ccncc2S(=O)(=O)NC(=O)NC(C)C)c1 [TORSEMIDE],ABSOLUTE BASOPHIL,[1],0 CELLS/uL
same,ABSOLUTE EOSINOPHIL,[1],64 CELLS/uL
same,ABSOLUTE LYMPHOCYTE,[1],7502 CELLS/uL
same,ABSOLUTE MONOCYTE,[1],142 CELLS/uL
same,ABSOLUTE SEGMENTED NEUTROPHIL,[1],525.33 CELLS/uL
same,BASOPHIL,[1],0%
same,EOSINOPHIL,[1],0.67%
same,ERYTHROCYTE COUNT,[1],5.57 x10E6/uL
same,HEMATOCRIT,[1],35.4%
same,HEMOGLOBIN,[1],13.63 G/DL
same,LEUKOCYTE COUNT,[1],8.23 x10E3/uL
same,LYMPHOCYTE,[1],91.33%
same,MEAN CORPUSCULAR HEMOGLOBIN,[1],24.57 pg
same,MEAN CORPUSCULAR HEMOGLOBIN CONCENTRATION,[1],38.5 G/DL
same,MEAN CORPUSCULAR VOLUME,[1],63.67 fL
same,MONOCYTE,[1],1.67%
same,NEUTROPHIL,[1],6.33%
same,NUCLEATED RED BLOOD CELLS,[1],0 /100WBC
same,PLATELET COUNT,[1],1174 x10E3/uL
same,ALANINE AMINOTRANSFERASE,[1],54.67 u/L
same,ALBUMIN,[1],4 G/DL
same,ALKALINE PHOSPHATASE,[1],376.67 u/L
same,ASPARTATE AMINOTRANSFERASE,[1],76 u/L
same,BLOOD UREA NITROGEN,[1],11.67 mg/dL
same,CARBON DIOXIDE,[1],31.33 mmol/L
same,CHLORIDE,[1],100 MEQ/L
same,CHOLESTEROL,[1],63.67 mg/dL
same,CREATINE PHOSPHOKINASE,[1],293.67 u/L
same,CREATININE,[1],0.14 mg/dL
same,GLUCOSE,[1],148.67 mg/dL
same,LACTATE DEHYDROGENASE,[1],190.33 u/L
same,LIPASE,[1],10.33 u/L
same,PHOSPHORUS,[1],11.3 mg/dL
same,POTASSIUM,[1],6.36 MEQ/L
same,SODIUM,[1],144.87 MEQ/L
same,TOTAL BILIRUBIN,[1],0.17 mg/dL
same,TOTAL PROTEIN,[1],6.03 G/DL
same,URIC ACID,[1],0.47 mg/dL
same,ABSOLUTE BASOPHIL,[2],0 CELLS/uL
same,ABSOLUTE EOSINOPHIL,[2],0 CELLS/uL
same,ABSOLUTE LYMPHOCYTE,[2],16133.33 CELLS/uL
same,ABSOLUTE MONOCYTE,[2],63.33 CELLS/uL
same,ABSOLUTE SEGMENTED NEUTROPHIL,[2],1136.67 CELLS/uL
same,BASOPHIL,[2],0%
same,EOSINOPHIL,[2],0%
same,ERYTHROCYTE COUNT,[2],5.8 x10E6/uL
same,HEMATOCRIT,[2],36.3%
same,HEMOGLOBIN,[2],14.23 G/DL
same,LEUKOCYTE COUNT,[2],17.33 x10E3/uL
same,LYMPHOCYTE,[2],93.33%
same,MEAN CORPUSCULAR HEMOGLOBIN,[2],24.53 pg
same,MEAN CORPUSCULAR HEMOGLOBIN CONCENTRATION,[2],39.23 G/DL
same,MEAN CORPUSCULAR VOLUME,[2],62.57 fL
same,MONOCYTE,[2],0.33%
same,NEUTROPHIL,[2],6.33%
same,NUCLEATED RED BLOOD CELLS,[2],0 /100WBC
same,PLATELET COUNT,[2],1008.33 x10E3/uL
same,ALANINE AMINOTRANSFERASE,[2],60.33 u/L
same,ALBUMIN,[2],4.17 G/DL
same,ALKALINE PHOSPHATASE,[2],282 u/L
same,ASPARTATE AMINOTRANSFERASE,[2],86 u/L
same,BLOOD UREA NITROGEN,[2],29.33 mg/dL
same,CARBON DIOXIDE,[2],33.33 mmol/L
same,CHLORIDE,[2],93.33 MEQ/L
same,CHOLESTEROL,[2],69.33 mg/dL
same,CREATINE PHOSPHOKINASE,[2],98.67 u/L
same,CREATININE,[2],0.32 mg/dL
same,GLUCOSE,[2],148 mg/dL
same,LACTATE DEHYDROGENASE,[2],104.67 u/L
same,LIPASE,[2],12 u/L
same,PHOSPHORUS,[2],8.13 mg/dL
same,POTASSIUM,[2],5.2 MEQ/L
same,SODIUM,[2],142.37 MEQ/L
same,TOTAL BILIRUBIN,[2],0.2 mg/dL
same,TOTAL PROTEIN,[2],5.37 G/DL
same,URIC ACID,[2],1.2 mg/dL
same,ABSOLUTE BASOPHIL,[3],0 CELLS/uL
same,ABSOLUTE EOSINOPHIL,[3],0 CELLS/uL
same,ABSOLUTE LYMPHOCYTE,[3],12824.33 CELLS/uL
same,ABSOLUTE MONOCYTE,[3],353.67 CELLS/uL
same,ABSOLUTE SEGMENTED NEUTROPHIL,[3],788.67 CELLS/uL
same,BASOPHIL,[3],0%
same,EOSINOPHIL,[3],0%
same,ERYTHROCYTE COUNT,[3],6.15 x10E6/uL
same,HEMATOCRIT,[3],38.4%
same,HEMOGLOBIN,[3],14.97 G/DL
same,LEUKOCYTE COUNT,[3],13.97 x10E3/uL
same,LYMPHOCYTE,[3],92%
same,MEAN CORPUSCULAR HEMOGLOBIN,[3],24.37 pg
same,MEAN CORPUSCULAR HEMOGLOBIN CONCENTRATION,[3],38.97 G/DL
same,MEAN CORPUSCULAR VOLUME,[3],62.5 fL
same,MONOCYTE,[3],2.33%
same,NEUTROPHIL,[3],5.67%
same,NUCLEATED RED BLOOD CELLS,[3],0.33 /100WBC
same,PLATELET COUNT,[3],1188.33 x10E3/uL
same,ALANINE AMINOTRANSFERASE,[3],70 u/L
same,ALBUMIN,[3],4.5 G/DL
same,ALKALINE PHOSPHATASE,[3],395.67 u/L
same,ASPARTATE AMINOTRANSFERASE,[3],104 u/L
same,BLOOD UREA NITROGEN,[3],29 mg/dL
same,CARBON DIOXIDE,[3],38.33 mmol/L
same,CHLORIDE,[3],86.33 MEQ/L
same,CHOLESTEROL,[3],65.33 mg/dL
same,CREATINE PHOSPHOKINASE,[3],234.67 u/L
same,CREATININE,[3],0.3 mg/dL
same,GLUCOSE,[3],176 mg/dL
same,LACTATE DEHYDROGENASE,[3],220.33 u/L
same,LIPASE,[3],10.67 u/L
same,PHOSPHORUS,[3],8.93 mg/dL
same,POTASSIUM,[3],4.3 MEQ/L
same,SODIUM,[3],142.87 MEQ/L
same,TOTAL BILIRUBIN,[3],0.1 mg/dL
same,TOTAL PROTEIN,[3],6.83 G/DL
same,URIC ACID,[3],0.6 mg/dL
